Values after ≈ are worked out from the molar mass of the structure shown. “Also recorded” adds a separate entry of the source.
What was measured:
P. aeruginosa ATCC 27853 = assay: Antibacterial activity in vitro, broth microdilution MIC; type: cell-based; conditions: 16–24 h at 37 °C, unit inferred
Protocol: (§1) The in vitro antibacterial activity of the synthesized benzamides 7–12 and 31–37 was evaluated against a panel of eight different bacterial strains. The Gram-positive bacterial strains comprised S. aureus, S. pneumoniae and E. faecalis, and the panel of Gram-negative bacteria consisted of E. coli, K. pneumoniae, A. baumannii and P. aeruginosa.
(§2) The selected bacterial strains were Gram-negative Escherichia coli (ATCC 25922) and Gram-positive Staphylococcus aureus (ATCC 29213) and S. Pneumoniae (ATCC 49619). The Saccharomyces cerevisiae ATCC 7752 strain was tested as a eukaryotic model organism. Synthesized compounds were prepared as 10 mM DMSO solutions and tested in a final concentration range of 100–0.2 µM [39].
(§3) Broth microdilution testing was performed according to CLSI (Clinical Laboratory Standards Institute) guidelines. The MIC (minimal inhibitory concentration) value was defined as the last tested concentration of a compound at which there is no visible growth of bacteria. Inoculums for each microorganism were prepared using the direct colony suspension method, where broth solutions that achieved turbidity equivalent to 0.5 McFarland standards were additionally diluted 100× with cation-adjusted MH media (Becton Dickinson). All test plates were incubated for 16–24 h at 37 °C.

A. baumannii ATCC 17978 = assay: as above; type: cell-based; conditions: 16–24 h at 37 °C, unit inferred
Protocol: as §1, §2, §3

E. faecalis ATCC 29212 = assay: as above; type: cell-based; conditions: for MIC E. faecalis ATCC 29212: broth microdilution, 16–24 h at 37 °C, unit inferred; for Selectivity of antibacterial activity, in words: against the Gram-positive strain E. faecalis
Protocol: as §1, §2, §3

S. aureus ATCC 29213 = assay: as above; type: cell-based, Staphylococcus aureus; conditions: for MIC S. aureus ATCC 29213: broth microdilution, 16–24 h at 37 °C, unit inferred
Protocol: as §1, §2, §3

E. coli efflux del. = assay: microbe, parasite or virus in culture; type: cell-based, Escherichia coli; conditions: broth microdilution, 16–24 h at 37 °C; unit inferred
Protocol: as §1, §2, §3

E. coli ATCC 25922 = assay: Antibacterial activity in vitro, broth microdilution MIC; type: cell-based, Escherichia coli; conditions: 16–24 h at 37 °C, unit inferred
Protocol: as §1, §2, §3

[1] = DPPH free radical scavenging assay; conditions: compared to the standard BHT
Excerpt: (§4) The synthesized benzazole acrylonitrile derivatives were screened for their antioxidative potency by using in vitro assays, namely DPPH and ABTS as free radical scavenging assays and FRAP as a ferric reducing/antioxidant power assay.
The well-known antioxidant butylated hydroxytoluene (BHT) was used as a standard for comparing activity during testing. The DPPH assay is a standard commonly used test for the in vitro assessment of the antioxidant capacity of novel compounds by using their ability to scavenge the stable radical 1,1-diphenyl-picrylhydrazyl. […] Another test used to evaluate the antioxidative capacity of novel compounds was the ABTS test, by which their activity was evaluated by scavenging the stable radical 3-ethylbenzthiazoline-6-sulphonic acid.
Determination of the reducing activity of the stable radical 1,1-diphenyl-picrylhydrazyl (DPPH):
The reducing activity of the investigated systems was measured by the DPPH method according to previously described procedures with modifications to ensure their use on a 96-well microplate. Briefly, equal volumes of various concentrations of the tested molecules (dissolved in DMSO) were added to a solution of DPPH (final concentration of 50 µM in absolute ethanol). Ethanol and DMSO were used as control solutions in line with earlier reports. The radical scavenging activity was calculated using the following formula:[(A517 control − A517 compound)/A517 control] × 100.
The IC50 values were calculated from dose–response curves using nonlinear regression analysis with the GraphPad Prism 8 Ink. program. All measurements were carried out in triplicate.

H460 (lung carcinoma) = assay: Antiproliferative activity in vitro, MTT assay, 72 h; type: cell-based; conditions: Homo sapiens, NCI-H460, 72 h incubation
Protocol: (§5) The experiments were carried out on four human cell lines which are derived from three cancer types: H460 (lung carcinoma), HCT 116 (colorectal carcinoma), MCF-7 (human breast cancer) and the non-cancerous cell line HEK 293 (human embryonic kidney).
(§6) The results are compared with the known antiproliferative agents doxorubicin and etoposide. […] Therefore, it is not clear whether the observed antiproliferative activity is due to the biological activity of the compounds or to precipitation.
(§7) The experiments were performed on four human cell lines, including HCT 116 (colon carcinoma), H 460 (lung carcinoma), MCF-7 (breast carcinoma) and HEK 293 (human embryonic kidney cells), in line with previously published experimental procedures. Briefly, the cells were grown in DMEM medium with the addition of 10% fetal bovine serum (FBS), 2 mM of L-glutamine, 100 U/mL of penicillin and 100 µg/mL of streptomycin and cultured as monolayers at 37 °C in a humidified atmosphere with 5% CO2. Cells were seeded at 2 × 10^3 cells/well in standard 96-well microtiter plates and left to attach for 24 h. The next day, a test compound was added in five serial 10-fold dilutions. The rate of cell growth was evaluated after 72 h of incubation with MTT assays. […] Each test was performed in quadruplicate in at least two individual experiments.

[2] = system: HCT 116 (colorectal carcinoma); assay: as above; type: cell-based; conditions: Homo sapiens, 72 h incubation, '-' with footnote a = did not show biological activity due to precipitation
Protocol: as §5, §6, §7

[3] = system: MCF-7 (human breast cancer); assay: as above; type: cell-based; conditions: MCF7, 72 h incubation
Protocol: as §5, §6, §7

[4] = system: HEK 293 (human embryonic kidney); assay: Antiproliferative activity in vitro, MTT assay, 72 h, non-cancerous cell line; type: cell-based; conditions: HEK293, 72 h incubation, '-' with footnote a = did not show biological activity due to precipitation
Protocol: as §5, §6, §7

[5] = Ferric reducing/antioxidant power (FRAP assay); set-up: FRAP: unit not given here; conditions: for FRAP: Fe2+ equivalents, triplicate; for FRAP ferric reducing/antioxidant power, in words: compared to the standard BHT
Protocol: as §4
The antioxidant activity of a substance is directly related to its reducing power.
The FRAP method was carried out according to previously described procedures with some modifications to make it compatible with an assay on a 96-well microplate. All results were expressed as Fe^2+ equivalents (Fe^2+ µmol). Ferrous sulphate (FeSO4 × 7H2O) was used to develop a standard curve of 20–2000 µmol/l for the FRAP test.

Row | Structure (SMILES) | MIC P. aeruginosa ATCC 27853 (P. aeruginosa ATCC 27853) [µM] | MIC A. baumannii ATCC 17978 (A. baumannii ATCC 17978) [µM] | MIC E. faecalis ATCC 29212 (E. faecalis ATCC 29212) [µM] | MIC S. aureus ATCC 29213 (S. aureus ATCC 29213) [µM] | MIC E. coli efflux del. (E. coli efflux del.) [µM] | MIC E. coli ATCC 25922 (E. coli ATCC 25922) [µM] | MIC (E. faecalis ATCC 29212; Enterococcus faecalis, ATCC29212, read-out: MIC E. faecalis) [µM] | Selectivity of antibacterial activity, in words (E. faecalis ATCC 29212) | DPPH free radical scavenging activity, in words [1] | IC50 (H460 (lung carcinoma)) [µM] | IC50 [2] [µM] | IC50 [3] [µM] | IC50 [4] [µM] | FRAP [5] | FRAP ferric reducing/antioxidant power, in words [5] | melting point [°C] | MIC (S. aureus ATCC 29213; Staphylococcus aureus, ATCC29213, read-out: MIC S. aureus) [µM]
1 | CC1(C)S[C@@H]2[C@H](NC(=O)[C@H](N)c3ccccc3)C(=O)N2[C@H]1C(=O)O [Ampicillin, ampicillin, reference compound] | > 64 | 32 (≈ 11.2 µg/mL) | 1 (≈ 0.349 µg/mL) | 0.5 (≈ 0.175 µg/mL) | – | – | – | – | – | – | – | – | – | – | – | – | –
2 | CC[C@H]1OC(=O)[C@H](C)[C@@H](O[C@H]2C[C@@](C)(OC)[C@@H](O)[C@H](C)O2)[C@H](C)[C@@H](O[C@@H]2O[C@H](C)C[C@H](N(C)C)[C@H]2O)[C@](C)(O)C[C@@H](C)CN(C)[C@H](C)[C@@H](O)[C@]1(C)O [Azithromycin, azithromycin, reference compound] | 32 (≈ 24 µg/mL) | 8 (≈ 5.99 µg/mL) | 8 (≈ 5.99 µg/mL) | 1 (≈ 0.749 µg/mL) | 0.5 (≈ 0.374 µg/mL) | 4 (≈ 3 µg/mL) | – | – | – | – | – | – | – | – | – | – | –
3 | CC(C)(O/N=C(\C(=O)N[C@@H]1C(=O)N2C(C(=O)[O-])=C(C[n+]3ccccc3)CS[C@H]12)c1csc(N)n1)C(=O)O [Ceftazidime, ceftazidime, reference compound] | 2 (≈ 1.09 µg/mL) | 4 (≈ 2.19 µg/mL) | > 64 | 4 (≈ 2.19 µg/mL) | – | – | – | – | – | – | – | – | – | – | – | – | –
4 | O=C(O)c1cn(C2CC2)c2cc(N3CCNCC3)c(F)cc2c1=O [Ciprofloxacin, ciprofloxacin, reference compound] | – | – | 4 (≈ 1.33 µg/mL) | 0.25 (≈ 0.0828 µg/mL) | – | – | – | – | – | – | – | – | – | – | – | – | –
5 | COc1c(O)cc(C(=O)Nc2nc3ccccc3[nH]2)cc1O [Compound 8, N-(1H-benzo[d]imidazol-2-yl)-3,5-dihydroxy-4-methoxybenzamide] | > 64 | > 64 | 8 (≈ 2.39 µg/mL) | > 64 | > 64 | > 64 | 8 (≈ 2.39 µg/mL) | selective antibacterial activity | significantly improved | 91.8 ± 1 | > 100 | 52.9 ± 16 | 49.4 ± 3.3 | 2461.93 ± 21.42 | excellent in vitro antioxidant activity | – | –
6 | CC(C)Cn1c(NC(=O)c2cc(O)c(O)c(O)c2)nc2ccccc21 [Compound 33, 3,4,5-Trihydroxy-N-(1-isobutyl-1H-benzo[d]imidazol-2-yl)benzamide] | > 64 | > 64 | 64 (≈ 21.8 µg/mL) | 32 (≈ 10.9 µg/mL) | 64 (≈ 21.8 µg/mL) | > 64 | – | – | significantly improved | > 100 | 43.2 ± 18.6 | 90.8 ± 1.6 | 77.1 ± 7.9 | 4154.35 ± 1.26 | excellent in vitro antioxidant activity | 291 to 293 | 32 (≈ 10.9 µg/mL)
7 | O=C(Nc1nc2ccccc2n1-c1ccccc1)c1cc(O)c(O)c(O)c1 [Compound 34, 3,4,5-Trihydroxy-N-(1-phenyl-1H-benzo[d]imidazol-2-yl)benzamide] | > 64 | > 64 | 32 (≈ 11.6 µg/mL) | > 64 | > 64 | > 64 | – | selective antibacterial activity | significantly improved; also recorded: exceptional activity | > 100 | > 100 | 49.4 ± 27.3 | 85.1 ± 8.8 | 6.83 ± 1.26 | very low | 278 to 281 | –
8 | COc1cccc2c1C(=O)c1c(O)c3c(c(O)c1C2=O)C[C@@](O)(C(=O)CO)C[C@@H]3O[C@H]1C[C@H](N)[C@H](O)[C@H](C)O1 [Doxorubicin, doxorubicin, reference compound] | – | – | – | – | – | – | – | – | – | 0.04 ± 0.01 | 0.04 ± 0.01 | 0.009 ± 0.004 | 0.02 ± 0.01 | – | – | – | –
9 | COc1cc([C@@H]2c3cc4c(cc3[C@@H](O[C@@H]3O[C@@H]5CO[C@@H](C)O[C@H]5[C@H](O)[C@H]3O)[C@H]3COC(=O)[C@H]23)OCO4)cc(OC)c1O [Etoposide, etoposide, reference compound] | – | – | – | – | – | – | – | – | – | 2.2 ± 0.4 | 2.2 ± 0.4 | 0.6 ± 0.1 | 0.65 ± 0.02 | – | – | – | –
10 | CNC(C)C1CCC(N)C(OC2C(N)CC(N)C(OC3OCC(C)(O)C(NC)C3O)C2O)O1 (stereo not shown) [Gentamicin, gentamicin, reference compound] | 2 (≈ 0.955 µg/mL) | 4 (≈ 1.91 µg/mL) | 16 (≈ 7.64 µg/mL) | 0.25 (≈ 0.119 µg/mL) | 1 (≈ 0.478 µg/mL) | 0.5 (≈ 0.239 µg/mL) | – | – | – | – | – | – | – | – | – | – | –
11 | C[C@@H](O)[C@H]1C(=O)N2C(C(=O)O)=C(S[C@@H]3CN[C@H](C(=O)N(C)C)C3)[C@H](C)[C@H]12 [Meropenem, meropenem, reference compound] | 1 (≈ 0.383 µg/mL) | 0.5 (≈ 0.192 µg/mL) | 8 (≈ 3.07 µg/mL) | < 0.125 | < 0.125 | < 0.125 | – | – | – | – | – | – | – | – | – | – | –
12 | CN(C)[C@@H]1C(O)=C(C(N)=O)C(=O)[C@@]2(O)C(O)=C3C(=O)c4c(O)cccc4[C@@](C)(O)[C@H]3C[C@@H]12 [Tetracycline, tetracycline, reference compound] | – | – | – | – | 32 (≈ 14.2 µg/mL) | – | – | – | – | – | – | – | – | – | – | – | –
13 | NC[C@H]1O[C@H](O[C@H]2[C@H](O)[C@@H](O[C@H]3O[C@H](CO)[C@@H](O)[C@H](N)[C@H]3O)[C@H](N)C[C@@H]2N)[C@H](N)C[C@@H]1O [Tobramycin, reference compound] | 0.5 (≈ 0.234 µg/mL) | 2 (≈ 0.935 µg/mL) | 8 (≈ 3.74 µg/mL) | 0.25 (≈ 0.117 µg/mL) | 1 (≈ 0.468 µg/mL) | 1 (≈ 0.468 µg/mL) | – | – | – | – | – | – | – | – | – | – | –

Source: paper PMC11085308, “Design, Synthesis and Biological Activity of Novel Methoxy- and Hydroxy-Substituted N-Benzimidazole-Derived Carboxamides” (Molecules, 2024)
